For 19 compounds, IC90 and EC50 results are on record in US20240226106A1, “INHIBITORS OF PLASMA KALLIKREIN” (SHIRE HUMAN GENETIC THERAPIES, INC., priority 2021, published 2024).

Each structure is given as a SMILES string.

In general, IC90 refers to the concentration at which the effect reaches the 90% level. In general, EC50 refers to the concentration that produces a half-maximal response.

One test has as its target T1, plasma kallikrein (Homo sapiens, UniProt P03952).
T1 construct: from tissue; host or cells: sodium citrate collected human plasma
The test is described as follows: Neat human plasma assay (fluorogenic peptide), contact pathway-activated plasma. As to conditions: citrated human plasma, 10 nM human FXIIa activation, 100 μM PFR-AMC, room temperature; read-out: Human Plasma Assay: IC90. The test is classed as biochemical. Here is the method:
To analyze inhibition of plasma kallikrein in an ex vivo setting, the potency of compounds was measure in contact pathway-activated plasma assays. In a fluorogenic peptide substrate assay, test compounds dissolved in DMSO were added to sodium citrate collected human or rat plasma in a 96-well microplate. Alternatively, citrated plasma was collected from rats administered the compounds orally or by IV. 10 nM of human FXIIa (Enzyme Research Laboratories) diluted in PKa buffer (20 mM Tris-HCl, pH 7.5, 150 mM NaCl, 1 mM EDTA, 0.100 PEG-8000, and 0.1% Triton X-100) was added to the plasma, followed by the 100 μM of the profluorescent, synthetic plasma kallikrein substrate PFR-AMC (also diluted in PKa buffer). Final plasma concentration in the reaction was […]. Fluorescence was immediately monitored by excitation/emission wavelengths of 360 nm/480 nm respectively over a period of 5 minutes in a microplate reader. The resulting linear increase in fluorescence emission (reflecting PKa proteolysis of PFR-AMC substrate) was fit to extract a proteolytic rate (fluorescent units over time), and this rate was subsequently plotted against compound inhibitor concentration. Resulting plots were fit to a standard 4-parameter IC50/C90 equation to determine min/max values, IC50/90, and slope. All experimental steps were performed at room temperature.

In test [1] the target is human activated kallikrein enzyme (Homo sapiens, UniProt P03952). As to the kind of experiment: Inhibition of human activated plasma kallikrein, fluorogenic peptide substrate (PFR-AMC), 500 pM enzyme format. The test is classed as biochemical. Particulars: 500 pM activated kallikrein, 30 min preincubation, 10 min reaction, room temperature, read-out: Primary Dose Response Assay: Average EC50. Here is the method:
Compounds were evaluated for inhibition of the human activated kallikrein enzyme in two formats of an assay employing a fluorogenic peptide substrate. In one assay format, the concentrations of reagents were as follows: 20 mM Tris pH 7.5, 1 mM EDTA, 150 mM sodium chloride, 0.1% PEG-400, 0.1% Triton X-100, 500 pM activated kallikrein enzyme, […] Pro-Phe-Arg-7-amido-4-methylcoumarin (PFR-AMC) substrate. Prior to reaction initiation with substrate, enzyme and inhibitors were preincubated for 30 min at room temperature. After initiation with substrate, reactions were incubated for 10 min at room temperature and fluorescence emission at 460 nm from 380 nm excitation measured with a microplate reader. In another assay format, the concentrations of reagents were as follows: 20 mM Tris pH 7.5, 1 mM EDTA, 150 mM sodium chloride, 0.1% PEG-400, 0.1% Triton X-100, 5 pM activated kallikrein enzyme, 300 uM PFR-AMC substrate. Prior to reaction initiation with substrate, enzyme and inhibitors were preincubated for 30 min at room temperature. After initiation with substrate, reactions were incubated for 18 hr at room temperature and fluorescence emission at 460 nm from 380 nm excitation measured with a microplate reader.

T1 sequence (P03952 391-638 limits assumed): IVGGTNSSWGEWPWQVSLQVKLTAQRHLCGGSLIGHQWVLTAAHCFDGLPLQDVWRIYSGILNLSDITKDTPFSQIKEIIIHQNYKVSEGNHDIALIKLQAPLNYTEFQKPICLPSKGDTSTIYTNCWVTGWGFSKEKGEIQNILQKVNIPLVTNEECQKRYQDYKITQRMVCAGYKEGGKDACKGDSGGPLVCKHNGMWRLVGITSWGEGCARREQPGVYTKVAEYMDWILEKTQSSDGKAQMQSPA
T1 sequence (P03952 20-390 partner limits assumed): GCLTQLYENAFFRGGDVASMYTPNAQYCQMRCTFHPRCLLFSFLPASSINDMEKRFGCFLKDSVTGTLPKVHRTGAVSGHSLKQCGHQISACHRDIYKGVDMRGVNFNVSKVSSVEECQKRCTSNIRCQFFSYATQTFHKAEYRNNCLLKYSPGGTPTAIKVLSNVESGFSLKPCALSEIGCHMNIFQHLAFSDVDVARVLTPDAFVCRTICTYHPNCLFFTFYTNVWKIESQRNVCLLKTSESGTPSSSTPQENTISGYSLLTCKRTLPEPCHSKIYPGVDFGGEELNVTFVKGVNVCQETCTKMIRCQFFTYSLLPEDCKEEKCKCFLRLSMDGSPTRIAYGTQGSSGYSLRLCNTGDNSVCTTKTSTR
Sequence of human activated kallikrein enzyme (P03952 391-638 limits assumed): as the sequence (P03952 391-638 limits assumed) above
Sequence of human activated kallikrein enzyme (P03952 20-390 partner limits assumed): as the sequence (P03952 20-390 partner limits assumed) above

Consider `N#Cc1ccc(Cl)cc1[C@H]1C[C@@H]1C(=O)Nc1cc(NCc2cn3cc(C4CC4)cnc3n2)ccn1` (racemic) [Example 22, rac-(1S*,2S*)-2-(5-chloro-2-cyanophenyl)-N-(4-(((6-cyclopropylimidazo[1,2-a]pyrimidin-2-yl)methyl)amino)pyridin-2-yl)cyclopropane-1-carboxamide], for which, at plasma kallikrein, the concentration for an effect of 90% (IC90) is 5000 to 65000 nM. For the same compound, the EC50 in test [1] was below 2.5 nM.

Consider `O=C(Nc1cc(NCc2nc3ncc(C4CC4)cn3n2)ccn1)[C@@H]1C[C@]12CCc1ccc(Cl)cc12` (racemic) [Example 41, rac-(1S*,2S*)-6′-chloro-N-(4-(((6-cyclopropyl-[1,2,4]triazolo[1,5-a]pyrimidin-2-yl)methyl)amino)pyridin-2-yl)-2′,3′-dihydrospiro[cyclopropane-1,1′-indene]-2-carboxamide], for which the concentration for an effect of 90% (IC90) on plasma kallikrein is 5000 to 65000 nM. In addition, the EC50 in test [1] was below 2.5 nM.

In the case of `N#Cc1ccc(Cl)cc1[C@H]1C[C@@H]1C(=O)Nc1cc(NCc2nc3ncc(C4CC4)cn3n2)ccn1` (racemic) [Example 42, rac-(1S*,2S*)-2-(5-chloro-2-cyanophenyl)-N-(4-(((6-cyclopropyl-[1,2,4]triazolo[1,5-a]pyrimidin-2-yl)methyl)amino)pyridin-2-yl)cyclopropane-1-carboxamide], the IC90 on plasma kallikrein was 500 to 5000 nM. Also, the half-maximal effective concentration (EC50) in test [1] was below 2.5 nM.

As to `O=C(Nc1cc(NCc2cc3cc(C4CC4)cc(N4CCOC4=O)n3n2)ncn1)[C@H]1C[C@@H]1c1cc(Cl)ccn1` (racemic) [Example 56, rac-(1S*,2S*)-2-(4-chloropyridin-2-yl)-N-(6-(((5-cyclopropyl-7-(2-oxooxazolidin-3-yl)pyrazolo[1,5-a]pyridin-2-yl)methyl)amino)pyrimidin-4-yl)cyclopropane-1-carboxamide], the concentration for an effect of 90% (IC90) on plasma kallikrein lay within 5000 to 65000 nM. The EC50 in test [1] is below 2.5 nM.

As to `CN1C(=O)CN(c2cc(C3CC3)cc3cc(CNc4cc(NC(=O)[C@H]5C[C@@H]5c5cc(Cl)ccn5)ncn4)nn23)C1=O` (racemic) [Example 57, rac-(1S*,2S*)-2-(4-chloropyridin-2-yl)-N-(6-(((5-cyclopropyl-7-(3-methyl-2,4-dioxoimidazolidin-1-yl)pyrazolo[1,5-a]pyridin-2-yl)methyl)amino)pyrimidin-4-yl)cyclopropane-1-carboxamide], the IC90 on plasma kallikrein is 500 to 5000 nM. The EC50 in test [1] was below 2.5 nM.

Turning to `Cc1ccnc([C@H]2C[C@@H]2C(=O)Nc2nccc(NCc3cn4cc(C5CC5)cnc4n3)n2)n1` (racemic) [Example 77, rac-(1S*,2S*)—N-(4-(((6-cyclopropylimidazo[1,2-a]pyrimidin-2yl)methyl)amino)pyrimidin-2-yl)-2-(4-methylpyrimidin-2-yl)cyclopropane-1-carboxamide], the IC90 at plasma kallikrein is 500 to 5000 nM. The EC50 in test [1] was below 2.5 nM.

For `Cc1ccnc([C@H]2C[C@@H]2C(=O)Nc2cc(NCc3cn4cc(C5CC5)nc(N5CC(=O)N(C)C5=O)c4n3)ncn2)n1` (racemic) [Example 80, rac-(1S*,2S*)—N-(6-(((6-cyclopropyl-8-(3-methyl-2,4-dioxoimidazolidin-1-yl)imidazo[1,2-a]pyrazin-2-yl)methyl)amino)pyrimidin-4-yl)-2-(4-methylpyrimidin-2-yl)cyclopropane-1-carboxamide], the concentration for an effect of 90% (IC90) at plasma kallikrein is below 500 nM. Besides, the EC50 in test [1] is below 2.5 nM.

For `Cc1ccnc([C@H]2C[C@@H]2C(=O)Nc2ncc(F)c(NCc3cn4cc(C5CC5)nc(N5CC(=O)N(C)C5=O)c4n3)n2)n1` (racemic) [Example 84, rac-(1S*,2S*)—N-(4-(((6-cyclopropyl-8-(3-methyl-2,4-dioxoimidazolidin-1-yl)imidazo[1,2-a]pyrazin-2-yl)methyl)amino)-5-fluoropyrimidin-2-yl)-2-(4-methylpyrimidin-2-yl) cyclopropane-1-carboxamide], the IC90 at plasma kallikrein is below 500 nM. Moreover, in test [1], the concentration giving a half-maximal response (EC50) was below 2.5 nM.

Regarding `Cc1ccnc([C@H]2C[C@@H]2C(=O)Nc2cc(N3C[C@@H](O)C[C@@H]3c3ccc(N4CC5CC5C4)nc3)ncn2)n1` (relative stereo) [Example 71, rac-(1S*,2S*)—N-(6-((2R^•,4S)-2-(6-(3-azabicyclo[3.1.0]hexan-3-yl)pyridin-3-yl)-4-hydroxypyrrolidin-1-yl)pyrimidin-4-yl)-2-(4-methylpyrimidin-2-yl)cyclopropane-1-carboxamide], the IC90 at plasma kallikrein was in the range of 500 to 5000 nM. Moreover, the half-maximal effective concentration (EC50) in test [1] is 2.5 to 25 nM.

`Cc1ccnc([C@H]2C[C@@H]2C(=O)Nc2cc(N3C[C@@H](O)C[C@@H]3c3cn4cc(C5CC5)cnc4n3)ncn2)n1` (relative stereo) [Example 72, rac-(1S*,2S*)—N-(6-((2R,4S)-2-(6-cyclopropylimidazo[1,2-a]pyrimidin-2-yl)-4-hydroxypyrrolidin-1-yl)pyrimidin-4-yl)-2-(4-methylpyrimidin-2-yl)cyclopropane-1-carboxamide]: the IC90 at plasma kallikrein was in the range of 500 to 5000 nM. Further, the EC50 in test [1] is below 2.5 nM.

`Cc1ccnc([C@H]2C[C@@H]2C(=O)Nc2cc(N3C[C@@H](O)C[C@@H]3c3cn4cc(C5CC5)cnc4n3)ncn2)c1` (single isomer, unassigned) [Example 75, (1S*,2S*)—N-(6-((2R,4S)-2-(6-cyclopropylimidazo[1,2-a]pyrimidin-2-yl)-4-hydroxypyrrolidin-1-yl)pyrimidin-4-yl)-2-(4-methylpyridin-2-yl)cyclopropane-1-carboxamide]: the IC90 on plasma kallikrein was in the range of 500 to 5000 nM. For the same compound, in test [1], the EC50 fell in the range of 2.5 to 25 nM.

As for `Cc1ccnc([C@H]2C[C@@H]2C(=O)Nc2nncc(N[C@H](C)c3cc4cc(C5CC5)cc(N5CC(=O)N(C)C5=O)n4n3)n2)n1` (single isomer, unassigned) [Example 102], the IC90 at plasma kallikrein was below 500 nM. Besides, in test [1], the EC50 was below 2.5 nM.

With `O=C(Nc1cc(NCc2cc3cc(C4CC4)cnc3s2)ccn1)[C@H]1C[C@@H]1c1cccc(Cl)c1` [Example 23, (1S,2S)-2-(3-chlorophenyl)-N-(4-(((5-cyclopropylthieno[2,3-b]pyridin-2-yl)methyl)amino)pyridin-2-yl)cyclopropane-1-carboxamide], the IC90 at plasma kallikrein was 5000 to 65000 nM. Moreover, in test [1], the EC50 was below 2.5 nM.

Turning to `O=C(Nc1cc(NCc2nc3ccc(C4CC4)cn3n2)ccn1)[C@H]1C[C@@H]1c1cccc(Cl)c1` [Example 25, (1S,2S)-2-(3-chlorophenyl)-N-(4-(((6-cyclopropyl-[1,2,4]triazolo[1,5-a]pyridin-2-yl)methyl)amino)pyridin-2-yl)cyclopropane-1-carboxamide], at plasma kallikrein, the IC90 lay in the range of 5000 to 65000 nM. Also, the EC50 in test [1] is below 2.5 nM.

Consider `CN(C(=O)[C@H]1C[C@H](O)CN1c1cc(NC(=O)[C@H]2C[C@@H]2c2cccc(Cl)c2)ncn1)c1ccc(C2CC2)cc1` [Example 65, (2R,4S)-1-(6-((1S,2S)-2-(3-chlorophenyl)cyclopropane-1-carboxamido)pyrimidin-4-yl)-N-(4-cyclopropylphenyl)-4-hydroxy-N-methylpyrrolidine-2-carboxamide], for which the half-maximal effective concentration (EC50) in test [1] was above 500 nM.

On to `O=C(Nc1cc(N2C[C@@H](O)CC2c2ccc(N3CC4CC4C3)nc2)ncn1)[C@H]1C[C@@H]1c1cccc(Cl)c1` (stereo partly drawn) [Example 67, (S,2S)—N-(6-((4S)-2-(6-(3-azabicyclo[3.1.0]hexan-3-yl)pyridin-3-yl)-4-hydroxypyrrolidin-1-yl)pyrimidin-4-yl)-2-(3-chlorophenyl)cyclopropane-1-carboxamide], for which the 50% effective concentration (EC50) in test [1] is 25 to 500 nM.

With `O=C1CN(c2cc(C3CC3)cn3nc(CNc4cc(NC(=O)[C@H]5C[C@@H]5c5cc(Cl)ccn5)ncn4)nc23)C(=O)N1` [Example 68, (1S,2S)-2-(4-chloropyridin-2-yl)-N-(6-(((6-cyclopropyl-8-(2,4-dioxoimidazolidin-1-yl)-[1,2,4]triazolo[1,5-a]pyridin-2-yl)methyl)amino)pyrimidin-4-yl)cyclopropane-1-carboxamide], the 50% effective concentration (EC50) in test [1] was below 2.5 nM.

For the compound `Cc1ccnc([C@H]2C[C@@H]2C(=O)Nc2cc(NCc3cc(F)c4ncc(Cl)cc4c3)nc(C)n2)n1` [Example 91, (1S,2S)—N-(6-(((3-chloro-8-fluoroquinolin-6-yl)methyl)amino)-2-methylpyrimidin-4-yl)-2-(4-methylpyrimidin-2-yl)cyclopropane-1-carboxamide], the EC50 in test [1] fell in the range of 2.5 to 25 nM.

With `Cc1ccnc([C@H]2C[C@@H]2C(=O)Nc2cc(OCc3cc(F)c4ncc(Cl)cc4c3)cnn2)n1` [Example 92, (1S,2S)—N-(5-((3-chloro-8-fluoroquinolin-6-yl)methoxy)pyridazin-3-yl)-2-(4-methylpyrimidin-2-yl)cyclopropane-1-carboxamide], the EC50 in test [1] lay within 2.5 to 25 nM.
